Assay results reported in ChEMBL document CHEMBL1127579, “Novel, potent luteinizing hormone-releasing hormone antagonists with improved solubility in water” (1994).
In brackets after ≈: the same amount, converted by molar mass.

Columns and labels:
Assay type in all cases: functional
Rattus norvegicus [1] = organism: Rattus norvegicus; assay: Evaluated for histamine releasing activity
Rattus norvegicus [2] = organism: Rattus norvegicus; assay: Antiovulatory activity expressed as ratio of rats ovulated/total rats at a dose of 0.25 microg; 6/10
Rattus norvegicus [3] = organism: Rattus norvegicus; assay: Antiovulatory activity expressed as ratio of rats ovulated/total rats at a dose of 0.5 microg; 0/10
Rattus norvegicus [4] = organism: Rattus norvegicus; assay: Antiovulatory activity expressed as ratio of rats ovulated/total rats at a dose of 1.0 ug; 1/6
Rattus norvegicus [5] = organism: Rattus norvegicus; assay: Antiovulatory activity expressed as ratio of rats ovulated/total rats at a dose of 0.5 microg; 3/13
Rattus norvegicus [6] = organism: Rattus norvegicus; assay: Antiovulatory activity expressed as ratio of rats ovulated/total rats at a dose of 1.0 ug; […]
Rattus norvegicus [7] = organism: Rattus norvegicus; assay: Antiovulatory activity expressed as ratio of rats ovulated/total rats at a dose of 0.5 microg; 2/9
Rattus norvegicus [8] = organism: Rattus norvegicus; assay: Antiovulatory activity expressed as ratio of rats ovulated/total rats at a dose of 0.5 microg; 5/6
Rattus norvegicus [9] = organism: Rattus norvegicus; assay: Antiovulatory activity expressed as ratio of rats ovulated/total rats at a dose of 0.5 microg; 2/6
Rattus norvegicus [10] = organism: Rattus norvegicus; assay: Antiovulatory activity expressed as ratio of rats ovulated/total rats at a dose of 0.5 microg; 2/12
Rattus norvegicus [11] = organism: Rattus norvegicus; assay: Antiovulatory activity expressed as ratio of rats ovulated/total rats at a dose of 1.0 ug; 0/6
Rattus norvegicus [12] = organism: Rattus norvegicus; assay: Antiovulatory activity expressed as ratio of rats ovulated/total rats at a dose of 0.25 microg; 3/7
Rattus norvegicus [13] = organism: Rattus norvegicus; assay: Antiovulatory activity expressed as ratio of rats ovulated/total rats at a dose of 0.25 microg; 2/12
Rattus norvegicus [14] = organism: Rattus norvegicus; assay: Antiovulatory activity expressed as ratio of rats ovulated/total rats at a dose of 0.5 microg; 3/6
Rattus norvegicus [15] = organism: Rattus norvegicus; assay: Antiovulatory activity expressed as ratio of rats ovulated/total rats at a dose of 0.5 microg; 3/5

`CC(=O)N[C@H](Cc1ccc2ccccc2c1)C(=O)N[C@H](Cc1ccc(Cl)cc1)C(=O)N[C@H](Cc1cccnc1)C(=O)N[C@@H](CO)C(=O)N[C@@H](CCCCNC(=O)c1ccccn1)C(=O)N[C@H](CCCCNC(=O)c1ccccn1)C(=O)N[C@@H](CC(C)C)C(=O)N[C@@H](CCCCN)C(=O)N1CCC[C@H]1C(=O)N[C@H](C)C(=O)O` was tested, and the ED50 (Rattus norvegicus [1]) was 93 µg/mL (≈ 60 µM), the Ratio (Rattus norvegicus [2]) was 6 and the Ratio (Rattus norvegicus [3]) was 0.

`CC(=O)N[C@H](Cc1ccc2ccccc2c1)C(=O)N[C@H](Cc1ccc(Cl)cc1)C(=O)N[C@H](Cc1cccnc1)C(=O)N[C@@H](CO)C(=O)N[C@@H](CCCCNC(=O)c1ccccn1)C(=O)N[C@H](CCCCNC(=O)c1nccnc1N)C(=O)N[C@@H](CC(C)C)C(=O)N[C@@H](CCCCNC(C)C)C(=O)N1CCC[C@H]1C(=O)N[C@H](C)C(=O)O` showed an ED50 (Rattus norvegicus [1]) of 100 µg/mL (≈ 62.2 µM), a Ratio (Rattus norvegicus [4]) of 1 and a Ratio (Rattus norvegicus [5]) of 3.

For `CC(=O)N[C@H](Cc1ccc2ccccc2c1)C(=O)N[C@H](Cc1ccc(Cl)cc1)C(=O)N[C@H](Cc1cccnc1)C(=O)N[C@@H](CO)C(=O)N[C@@H](CCCCNC(=O)c1cccnc1)C(=O)N[C@H](CCCCNC(=O)c1cnccn1)C(=O)N[C@@H](CC(C)C)C(=O)N[C@@H](CCCCN)C(=O)N1CCC[C@H]1C(=O)N[C@H](C)C(=O)O`, the Ratio (Rattus norvegicus [6]) was 1, the ED50 (Rattus norvegicus [1]) was 263 µg/mL (≈ 170 µM) and the Ratio (Rattus norvegicus [7]) was 2.

In the case of `CC(=O)N[C@H](Cc1ccc2ccccc2c1)C(=O)N[C@H](Cc1ccc(Cl)cc1)C(=O)N[C@H](Cc1cccnc1)C(=O)N[C@@H](CO)C(=O)N[C@@H](CCCCNC(=O)c1cnccn1)C(=O)N[C@H](CCCCNC(=O)c1cnccn1)C(=O)N[C@@H](CC(C)C)C(=O)N[C@@H](CCCCN)C(=O)N1CCC[C@H]1C(=O)N[C@H](C)C(=O)O`, the Ratio (Rattus norvegicus [8]) is reported as 5.

Work on `CC(=O)N[C@H](Cc1ccc2ccccc2c1)C(=O)N[C@H](Cc1ccc(Cl)cc1)C(=O)N[C@H](Cc1cccnc1)C(=O)N[C@@H](CO)C(=O)N[C@@H](CCCCNC(=O)c1ccccn1)C(=O)N[C@H](CCCCNC(=O)c1cccc(N)n1)C(=O)N[C@@H](CC(C)C)C(=O)N[C@@H](CCCN=C(N)N)C(=O)N1CCC[C@H]1C(=O)N[C@H](C)C(=O)O` yielded a Ratio (Rattus norvegicus [9]) of 2.

In the case of `CC(=O)N[C@H](Cc1ccc2ccccc2c1)C(=O)N[C@H](Cc1ccc(Cl)cc1)C(=O)N[C@H](Cc1cccnc1)C(=O)N[C@@H](CO)C(=O)N[C@@H](CCCCNC(=O)c1ccccn1)C(=O)N[C@H](CCCCNC(=O)c1ccc(N)nc1)C(=O)N[C@@H](CC(C)C)C(=O)N[C@@H](CCCCNC(C)C)C(=O)N1CCC[C@H]1C(=O)N[C@H](C)C(=O)O`, the ED50 (Rattus norvegicus [1]) is reported as 96 µg/mL (≈ 59.7 µM), the Ratio (Rattus norvegicus [10]) is reported as 2 and the Ratio (Rattus norvegicus [11]) is reported as 0. For the same compound, the Ratio (Rattus norvegicus [12]) was 3.

With `CC(=O)N[C@H](Cc1ccc2ccccc2c1)C(=O)N[C@H](Cc1ccc(Cl)cc1)C(=O)N[C@H](Cc1cccnc1)C(=O)N[C@@H](CO)C(=O)N[C@@H](CCCCNC(=O)c1ccccn1)C(=O)N[C@H](CCCCNC(=O)c1ccc(N)nc1)C(=O)N[C@@H](CC(C)C)C(=O)N[C@@H](CCCN=C(N)N)C(=O)N1CCC[C@H]1C(=O)N[C@H](C)C(=O)O` the ED50 (Rattus norvegicus [1]) was 8 µg/mL (≈ 5.02 µM), the Ratio (Rattus norvegicus [11]) was 0 and the Ratio (Rattus norvegicus [13]) was 2. It also gave a Ratio (Rattus norvegicus [9]) of 2.

`CC(=O)N[C@H](Cc1ccc2ccccc2c1)C(=O)N[C@H](Cc1ccc(Cl)cc1)C(=O)N[C@H](Cc1cccnc1)C(=O)N[C@@H](CO)C(=O)N[C@@H](CCCCNC(=O)c1cnccn1)C(=O)N[C@H](CCCCNC(=O)c1ccccn1)C(=O)N[C@@H](CC(C)C)C(=O)N[C@@H](CCCCN)C(=O)N1CCC[C@H]1C(=O)N[C@H](C)C(=O)O` gave a Ratio (Rattus norvegicus [14]) of 3.

For `CC(C)C[C@H](NC(=O)[C@@H](CCCCNC(=O)c1ccc(N)nc1)NC(=O)[C@H](Cc1ccc(O)cc1)NC(=O)[C@H](CO)NC(=O)[C@@H](Cc1cccnc1)NC(=O)[C@@H](Cc1ccc(Cl)cc1)NC(=O)[C@H](N)Cc1ccc2ccccc2c1)C(=O)N[C@@H](CCCN=C(N)N)C(=O)N1CCC[C@H]1C(=O)N[C@H](C)C(=O)O`, the Ratio (Rattus norvegicus [15]) was 3.
